pKi: −log10 of the molar value.

For this assay, the target named is T1, histamine 3 receptor (H3R) (Homo sapiens, UniProt Q9Y5N1).
T1 construct: expressed in transfected cells; host or cells: CHO cells (HR3-CHO)
T1 sequence (Q9Y5N1 whole entry): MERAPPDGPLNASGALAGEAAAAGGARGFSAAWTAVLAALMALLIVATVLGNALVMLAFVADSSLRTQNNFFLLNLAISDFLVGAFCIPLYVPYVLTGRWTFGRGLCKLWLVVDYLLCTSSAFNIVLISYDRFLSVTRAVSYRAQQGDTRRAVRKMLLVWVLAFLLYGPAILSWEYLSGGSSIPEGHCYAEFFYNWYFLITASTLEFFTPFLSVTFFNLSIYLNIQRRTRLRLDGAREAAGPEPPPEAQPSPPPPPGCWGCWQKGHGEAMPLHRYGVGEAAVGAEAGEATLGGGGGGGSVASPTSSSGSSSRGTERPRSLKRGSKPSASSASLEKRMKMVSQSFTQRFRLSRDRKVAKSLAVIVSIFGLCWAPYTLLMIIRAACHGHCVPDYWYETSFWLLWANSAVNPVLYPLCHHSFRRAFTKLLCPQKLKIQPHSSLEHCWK
Briefly: Binding assay with 3H-(R)α-methylhistamine (competition binding). The settings on record: competition with 3H(R)α-methylhistamine (1 nM), membranes of the human HR3-CHO cell line; Ki calculated from IC50 by Cheng-Prusoff. As for the experimental part: Binding Assay with ^3H—(R)α-methylhistamine
Saturation binding experiments were performed using HR3-CHO membranes prepared as described in Takahashi, K, Tokita, S., Kotani, H. (2003) J. Pharmacol. Exp. Therapeutics 307, 213-218.
An appropriate amount of membrane (60 to 80 μg protein/well) was incubated with increasing concentrations of ^3H(R)α-Methylhistamine di-hydrochloride (0.10 to 10 nM). Non specific binding was determined using a 200 fold excess of cold (R)α-Methylhistamine dihydrobromide (500 nM final concentration). The incubation was carried out at room temperature (in deep-well plates shaking for three hours). The final volume in each well was 250 μl. The incubation was followed by rapid filtration on GF/B filters (pre-soaked with 100 μl of 0.5% PEI in Tris 50 mM shaking at 200 rpm for two hours). The filtration was made using a cell-harvester and the filter plates were then washed five times with ice cold washing buffer containing 0.5 M NaCl. After harvesting, the plates were dried at 55° C. for 60 min, then scintillation fluid (Microscint 40, 40 microl in each well) was added and the amount of radioactivity on the filter was determined in Packard top-counter after shaking the plates for two hours at 200 rpm at room temperature.
Binding Buffer: 50 mM Tris-HCl pH 7.4 and 5 mM MgCl2×6H2O pH 7.4. Washing Buffer: 50 mM Tris-HCl pH 7.4 and 5 mM MgCl2×6H2O and 0.5 M NaCl pH 7.4.
Indirect measurement of affinity of H3R inverse agonists: twelve increasing concentrations (ranging from 10 μM to 0.3 nM) of the selected compounds were always tested in competition binding experiments using membranes of the human HR3-CHO cell line. An appropriate amount of protein, e.g. approximately 500 cpm binding of RAMH at Kd, were incubated for 1 hour at room temperature in 250 μl final volume in 96-well plates in presence of ^3H(R)α-Methylhistamine (1 nM final concentration=Kd). Non-specific binding was determined using a 200 fold excess of cold (R)α-Methylhistamine dihydrobromide.
All compounds were tested at a single concentration in duplicate. […] The concentration at which 50% inhibition of the radioligand ^3H(R)α-methylhistamine is obtained (the IC50) is determined from the linear regression of a plot of the logarithm of the concentration versus percent inhibition measured for the different concentrations. Ki's were calculated from IC50 based on Cheng-Prusoff equation (Cheng, Y, Prusoff, W H (1973) Biochem Pharmacol 22, 3099-3108): Ki=IC50/[1+D/Kd] wherein D is the concentration of the radioligand and Kd is the binding constant for the radioligand binding to the receptor under the conditions used in the competition experiment.
With `CC(C)N1CCC(Oc2ccc3c(-c4ccccc4)c(C(=O)N4CCC(F)(F)CC4)oc3c2)CC1` [Example 17, (4,4-Difluoro-piperidin-1-yl)-[6-(1-isopropyl-piperidin-4-yloxy)-3-phenyl-benzofuran-2-yl]-methanone], the pKi (as a rule, the negative decadic logarithm of the Ki, by convention in mol/L) is 8.89.
For the compound `COC(=O)N1CCN(C(=O)c2oc3cc(OC4CCN(C(C)C)CC4)ccc3c2-c2ccc(F)cc2)CC1` [Example 45, 4-[3-(4-Fluoro-phenyl)-6-(1-isopropyl-piperidin-4-yloxy)-benzofuran-2-carbonyl]-piperazine-1-carboxylic acid methyl ester], the negative-log Ki (pKi) is 9.40.
The value for `O=C(c1oc2cc(OC3CCN(C4CCC4)CC3)ccc2c1-c1ccc(F)cc1)N1CCC(F)(F)CC1` [Example 65, [6-(1-Cyclobutyl-piperidin-4-yloxy)-3-(4-fluoro-phenyl)-benzofuran-2-yl]-(4,4-difluoro-piperidin-1-yl)-methanone] was 10.00; that for `CC(C)N1CCC(Oc2cc3cc(C(=O)N4CCS(=O)(=O)CC4)sc3cc2Cl)CC1` [Example 69, [6-Chloro-5-(1-isopropyl-piperidin-4-yloxy)-benzo[b]thiophen-2-yl]-(1,1-dioxo-1λ6thiomorpholin-4-yl)-methanone] was 8.82.
The value for `COC(=O)N1CCN(C(=O)c2oc3cc(OC4CCN(C(C)C)CC4)c(Cl)cc3c2C(C)C)CC1` [Example 72, 4-[5-Chloro-3-isopropyl-6-(1-isopropyl-piperidin-4-yloxy)-benzofuran-2-carbonyl]-piperazine-1-carboxylic acid methyl ester] was 9.10.
The value for `COC(=O)N1CCN(C(=O)c2oc3cc(OC4CCN(C5CCC5)CC4)c(Cl)cc3c2C(C)C)CC1` [Example 76, 4-[5-Chloro-6-(1-cyclobutyl-piperidin-4-yloxy)-3-isopropyl-benzofuran-2-carbonyl]-piperazine-1-carboxylic acid methyl ester] was 9.30.
Consider `CC(C)N1CCC(Oc2cc3oc(C(=O)N4CCS(=O)(=O)CC4)c(-c4ccc(F)cc4)c3cc2Cl)CC1` [Example 82, [5-Chloro-3-(4-fluoro-phenyl)-6-(1-isopropyl-piperidin-4-yloxy)-benzofuran-2-yl]-(1,1-dioxo-1λ6thiomorpholin-4-yl)-methanone], for which the pKi was 9.40.
Then `Cc1c(C(=O)N2CCC(F)(F)CC2)oc2cc(OC3CCN(C4CCC4)CC3)c(Cl)cc12` [Example 91, [5-Chloro-6-(1-cyclobutyl-piperidin-4-yloxy)-3-methyl-benzofuran-2-yl]-(4,4-difluoro-piperidin-1-yl)-methanone], with 8.59.
For the compound `COC(=O)N1CCN(C(=O)c2oc3cc(OC4CCN(C5CCC5)CC4)c(Cl)cc3c2C)CC1` [Example 94, 4-[5-Chloro-6-(1-cyclobutyl-piperidin-4-yloxy)-3-methyl-benzofuran-2-carbonyl]-piperazine-1-carboxylic acid methyl ester], the negative-log Ki (pKi) is 8.64.

The record behind these values is US7534788B2, “Benzofuran and benzothiophene-2-carboxylic acid amide derivatives” (Hoffmann-La Roche Inc., priority 2007, dated 2009).
